Converted amounts (≈) assume the structure as drawn.
System: S aureus A798
Assay: Minimal inhibitory concentration (MIC), microdilution method in cation-adjusted Mueller-Hinton Broth following NCCLS guidelines
Type: cell-based
Settings: pH of test medium 7.2-7.3
Experimental: These assays have been performed following the description given in “Methods for dilution Antimicrobial Susceptibility Tests for Bacteria that Grow Aerobically, 4th ed.; Approved standard: NCCLS Document M7-A4; National Committee for Clinical Laboratory Standards Villanova, Pa., USA, 1997”. Minimal inhibitory concentrations (MICs; mg/l) were determined in cation-adjusted Mueller-Hinton Broth by a microdilution method following NCCLS guidelines (National Committee for Clinical Laboratory Standards. Methods for Dilution Antimicrobial Susceptibility). The pH of the test medium was 7.2-7.3. All Example compounds were tested against several Gram positive and Gram negative bacteria.

Row | MIC S aureus A798 [µg/mL] | MIC [µg/mL] | SMILES
1 | 4 (≈ 8.14 µM) |  | COc1ccc2nccc(N3CC(CNC(=O)[C@@H]4CN(c5ccc6c(c5)OCCO6)C(=O)O4)C3)c2n1 [Example 2, (S)-3-(2,3-Dihydro-benzo[1,4]dioxin-6-yl)-2-oxo-oxazolidine-5-carboxylic acid[1-(6-methoxy-[1,5]naphthyridin-4-yl)-azetidin-3-ylmethyl]-amide]
2 |  | 0.125 (≈ 0.27 µM) | COc1ccc2nccc(N3CC(N(C)C[C@@H]4CN(c5ccc6c(c5)OCO6)C(=O)O4)C3)c2n1 [Example 145, (R)-3-Benzo[1,3]dioxol-5-yl-5-({[1-(6-methoxy-[1,5]naphthyridin-4-yl)-azetidin-3-yl]-methyl-amino}-methyl)-oxazolidin-2-one]
3 |  | 0.063 (≈ 0.125 µM) | COc1ccc2nccc(N3C[C@@H]4C[C@H]3CN4C[C@@H]3CN(c4ccc5c(c4)NC(=O)CO5)C(=O)O3)c2n1 [Example 151, 6-{(R)-5-[(1S,4S)-5-(6-Methoxy-[1,5]naphthyridin-4-yl)-2,5-diaza-bicyclo[2.2.1]hept-2-ylmethyl]-2-oxo-oxazolidin-3-yl}-4H-benzo[1,4]oxazin-3-one]
4 |  | 0.125 (≈ 0.286 µM) | COc1ccc2nccc(N3CCN(C[C@H]4CN(c5cccc(F)c5)C(=O)O4)CC3)c2n1 [Example 40, (S)-3-(3-Fluoro-phenyl)-5-[4-(6-methoxy-[1,5]naphthyridin-4-yl)-piperazin-1-ylmethyl]-oxazolidin-2-one]
5 | 0.125 (≈ 0.27 µM) |  | COc1ccc2nccc(N3CC4C(C3)C4NC[C@@H]3CN(c4ccc(C)c(F)c4)C(=O)O3)c2n1 (stereo partly drawn) [Example 88, (R)-3-(3-Fluoro-4-methyl-phenyl)-5-{[(1a,5a,6a)-3-(6-methoxy-[1,5]naphthyridin-4-yl)-3-aza-bicyclo[3.1.0]hex-6-ylamino]-methyl}-oxazolidin-2-one]
6 |  | 0.25 | COc1ccc2nccc(N3CCC(C(=O)NC[C@@H]4CN(c5ccc6c(c5)OCCO6)C(=O)O4)C3)c2n1 (mixture of isomers) [Example 85, (RS)-1-(6-Methoxy-[1,5]naphthyridin-4-yl)-pyrrolidine-3-carboxylic acid [(R)-3-(2,3-dihydro-benzo[1,4]dioxin-6-yl)-2-oxo-oxazolidin-5-ylmethyl]-amide]
7 |  | 0.25 (≈ 0.509 µM) | COc1ccc2nccc(N3CC(CN(C)C[C@H]4CN(c5ccc6c(c5)OCCO6)C(=O)O4)C3)c2n1 [Example 118, (S)-3-(2,3-Dihydro-benzo[1,4]dioxin-6-yl)-5-({[1-(6-methoxy-[1,5]naphthyridin-4-yl)-azetidin-3-ylmethyl]-methyl-amino}-methyl)-oxazolidin-2-one]
8 |  | ≤ 0.031 | COc1ccc2nccc(N3CC(N(C)C[C@@H]4CN(c5ccc6c(c5)NC(=O)CS6)C(=O)O4)C3)c2n1 [Example 56, 6-[(R)-5-({[1-(6-Methoxy-[1,5]naphthyridin-4-yl)-azetidin-3-yl]-methyl-amino}-methyl)-2-oxo-oxazolidin-3-yl]-4H-benzo[1,4]thiazin-3-one]
9 |  | ≤ 0.031 | COc1ccc2nccc(N3CC(NC[C@H]4CN(c5ccc6c(c5)NC(=O)CS6)C(=O)O4)C3)c2n1 [Example 57, 6-((S)-5-{[1-(6-Methoxy-[1,5]naphthyridin-4-yl)-azetidin-3-ylamino]-methyl}-2-oxo-oxazolidin-3-yl)-4H-benzo[1,4]thiazin-3-one]
10 | 0.063 (≈ 0.135 µM) |  | COc1ccc2nccc(N3CCN(C[C@H]4CN(c5ccc(C)c(F)c5)C(=O)O4)C(=O)C3)c2n1 (single isomer, unassigned) [Example 100, [(S)-3-(3-Fluoro-4-methyl-phenyl)-2-oxo-oxazolidin-5-ylmethyl]-4-(6-methoxy-[1,5]naphthyridin-4-yl)-piperazin-2-one or [(R)-3-(3-Fluoro-4-methyl-phenyl)-2-oxo-oxazolidin-5-ylmethyl]-4-(6-methoxy-[1,5]naphthyridin-4-yl)-piperazin-2-one]
11 |  | ≤ 0.031 | COc1ccc2nccc(N3CC[C@H](NC(=O)[C@@H]4CN(c5ccc6c(c5)OCCO6)C(=O)O4)C3)c2n1 [Example 60, (S)-3-(2,3-Dihydro-benzo[1,4]dioxin-6-yl)-2-oxo-oxazolidine-5-carboxylic acid [(S)-1-(6-methoxy-[1,5]naphthyridin-4-yl)-pyrrolidin-3-yl]-amide]
12 |  | ≤ 0.031 | COc1ccc2nccc(N3CC(N(C)C[C@@H]4CN(c5ccc(C)c(Br)c5)C(=O)O4)C3)c2n1 [Example 142, (R)-3-(3-Bromo-4-methyl-phenyl)-5-({[1-(6-methoxy-[1,5]naphthyridin-4-yl)-azetidin-3-yl]-methyl-amino}-methyl)-oxazolidin-2-one]
13 |  | 0.063 (≈ 0.14 µM) | COc1ccc2nccc(N3CC[C@@H](NC[C@@H]4CN(c5ccc(C)c(F)c5)C(=O)O4)C3)c2n1 [Example 68, (R)-3-(3-Fluoro-4-methyl-phenyl)-5-{[(R)-1-(6-methoxy-[1,5]naphthyridin-4-yl)-pyrrolidin-3-ylamino]-methyl}-oxazolidin-2-one]
14 |  | 0.25 (≈ 0.513 µM) | COc1ccc2nccc(N3CCN(C[C@@H]4CN(c5cccc(C(F)(F)F)c5)C(=O)O4)CC3)c2n1 [Example 16, (R)-5-[4-(6-Methoxy-[1,5]naphthyridin-4-yl)-piperazin-1-ylmethyl]-3-(3-trifluoromethyl-phenyl)-oxazolidin-2-one]
15 |  | ≤ 0.031 | COc1ccc2nccc(N3CC[C@H](NC[C@@H]4CN(c5ccc6c(c5)NC(=O)CS6)C(=O)O4)C3)c2c1 [Example 172, 6-((R)-5-{[(S)-1-(6-Methoxy-quinolin-4-yl)-pyrrolidin-3-ylamino]-methyl}-2-oxo-oxazolidin-3-yl)-4H-benzo[1,4]thiazin-3-one]
16 |  | ≤ 0.031 | COc1ccc2nccc(N3CC(NCCC4CN(c5ccc6c(c5)NC(=O)CS6)C(=O)O4)C3)c2n1 (racemic) [Example 58, (RS)-6-(5-{2-[1-(6-Methoxy-[1,5]naphthyridin-4-yl)-azetidin-3-ylamino]-ethyl}-2-oxo-oxazolidin-3-yl)-4H-benzo[1,4]thiazin-3-one]
17 |  | 1 (≈ 1.92 µM) | COc1ccc2nccc(N3CC(NC(=O)C[C@@H]4CN(c5ccc6c(c5)NC(=O)CS6)C(=O)O4)C3)c2n1 [Example 115, N-[1-(6-Methoxy-[1,5]naphthyridin-4-yl)-azetidin-3-yl]-2-[(R)-2-oxo-3-(3-oxo-3,4-dihydro-2H-benzo[1,4]thiazin-6-yl)-oxazolidin-5-yl]-acetamide]
18 |  | ≤ 0.031 | COc1ccc2nccc(N3CCN(C[C@@H]4CN(c5ccc(C)c(C(F)(F)F)c5)C(=O)O4)CC3)c2n1 [Example 18, (R)-5-[4-(6-Methoxy-[1,5]naphthyridin-4-yl)-piperazin-1-ylmethyl]-3-(4-methyl-3-trifluoromethyl-phenyl)-oxazolidin-2-one]
19 |  | ≤ 0.031 | COc1ccc2nccc(N3CCC(C(=O)NC[C@@H]4CN(c5ccc(C)c(F)c5)C(=O)O4)C3)c2n1 (mixture of isomers) [Example 84, (RS)-1-(6-Methoxy-[1,5]naphthyridin-4-yl)-pyrrolidine-3-carboxylic acid [(R)-3-(3-fluoro-4-methyl-phenyl)-2-oxo-oxazolidin-5-ylmethyl]-amide]

Row | SMILES | MIC S aureus A798 [µg/mL] | MIC [µg/mL]
20 | COc1ccc2nccc(C3(O)CCN(C[C@@H]4CN(c5ccc6c(c5)NC(=O)CO6)C(=O)O4)CC3)c2c1 [Example 132, 6-{(R)-5-[4-Hydroxy-4-(6-methoxy-quinolin-4-yl)-piperidin-1-ylmethyl]-2-oxo-oxazolidin-3-yl}-4H-benzo[1,4]oxazin-3-one] |  | 0.063 (≈ 0.125 µM)

Source: patent US8217029B2, “Oxazolidinone antibiotics” (Actelion Pharmaceuticals Ltd, priority 2007, dated 2012)
